Laboratory results taken from patent US9221787B2, “Sulphonamine compounds and methods of making and using same” (Zafgen, Inc., priority 2010, dated 2015).

Target: T1, recombinant human MetAP2 (Homo sapiens, UniProt P50579)
T1 construct: Flag; made in house; host or cells: Sf9 insect cells
Assay: Inhibition of recombinant human MetAP2 activity (Amplex red fluorescence assay)
Type: biochemical
Conditions: manganese enzyme, 0.75 mM Methionine-Alanine-Serine (MAS) substrate, 30 minutes at 25° C., pH 7.5, 1% DMSO
Description: Compounds are tested for their capacity to inhibit recombinant human MetAP2 activity using the following assay.
Human recombinant Flag-MetAP2 expressed in Sf9 cells followed by affinity purification and EDTA treatment to remove endogenous active site cation is dialysed against MnCl2 to produce the manganese enzyme used in the assay. The assay is carried out for 30 minutes at 25° C. in 50 mM HEPES buffer containing 100 mM NaCl, pH 7.5 the presence of 0.75 mM Methionine-Alanine-Serine (MAS) substrate and […] amino acid oxidase using a dilution of purified MetAP2 giving approximately 50,000 RFU control activity. Cleavage of the substrate by MetAP2 and oxidation of free methionine by amino acid oxidase is detected and quantified using fluorescence generated by Amplex red (10-acetyl-3,7-dihydroxyphenoxazine) in combination with horseradish peroxidase which detects H2O2 released during the oxidation step. The fluorescent signal is detected using a multiwell fluorimeter. Compounds are diluted in DMSO prior to addition to assay buffer, the final DMSO concentration in the assay being 1%.
The IC50 is defined as the concentration at which a given compound achieves 50% inhibition of control. IC50 values are calculated using the XLfit software package (version 2.0.5).

T1 sequence (P50579 whole entry): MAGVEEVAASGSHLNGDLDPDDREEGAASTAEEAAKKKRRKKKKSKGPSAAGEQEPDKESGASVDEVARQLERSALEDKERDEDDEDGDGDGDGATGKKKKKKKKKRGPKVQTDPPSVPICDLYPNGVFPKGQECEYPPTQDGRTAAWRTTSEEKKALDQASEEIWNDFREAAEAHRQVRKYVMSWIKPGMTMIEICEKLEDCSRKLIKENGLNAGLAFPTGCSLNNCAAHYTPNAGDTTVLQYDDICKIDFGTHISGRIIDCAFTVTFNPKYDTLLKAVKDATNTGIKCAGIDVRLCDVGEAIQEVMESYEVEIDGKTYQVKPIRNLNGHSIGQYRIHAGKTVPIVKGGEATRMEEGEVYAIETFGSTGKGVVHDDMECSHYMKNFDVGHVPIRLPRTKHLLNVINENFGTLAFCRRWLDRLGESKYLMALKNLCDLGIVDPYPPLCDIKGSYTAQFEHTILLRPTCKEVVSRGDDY

O=C(O)c1c(NS(=O)(=O)c2ccccc2)sc2c1CCCO2 showed an IC50 of under 200 nM.
Compound O=C(O)c1c(NS(=O)(=O)c2ccccc2Cl)sc2c1CCCC2 [2-(2-Chlorobenzenesulphonylamino)-4,5,6,7-tetrahydrobenzo[b]thiophene-3-carboxylic acid] has an IC50 of 200 to 2000 nM.
CCc1ccccc1S(=O)(=O)Nc1sc2c(c1C(=O)O)CCCC2 [2-(2-Ethylbenzenesulphonylamino)-4,5,6,7-tetrahydrobenzo[b]thiophene-3-carboxylic acid] was tested, and the IC50 was under 200 nM.
Work on O=C(O)c1c(NS(=O)(=O)c2ccccc2F)sc2c1CCCC2 [2-(2-Fluorobenzenesulphonylamino)-4,5,6,7-tetrahydrobenzo[b]thiophene-3-carboxylic acid] yielded an IC50 of 200 to 2000 nM.
COc1ccccc1S(=O)(=O)Nc1sc2c(c1C(=O)O)CCCC2 [2-(2-Methoxybenzenesulphonylamino)-4,5,6,7-tetrahydrobenzo[b]thiophene-3-carboxylic acid] showed an IC50 of under 200 nM.
Cc1ccccc1S(=O)(=O)Nc1sc2c(c1C(=O)O)CCCC2 [2-(2-Methylbenzenesulphonylamino)-4,5,6,7-tetrahydrobenzo[b]thiophen-3-carboxylic acid] showed an IC50 of under 200 nM.
O=C(O)c1c(NS(=O)(=O)c2ccccc2C(F)(F)F)sc2c1CCCC2 [2-(2-Trifluoromethylbenzenesulphonylamino)-4,5,6,7-tetrahydrobenzo[b]thiophene-3-carboxylic acid] was tested, and the IC50 was 200 to 2000 nM.
O=C(O)c1c(NS(=O)(=O)c2cccc(Cl)c2)sc2c1CCCC2 [2-(3-Chlorobenzenesulphonylamino)-4,5,6,7-tetrahydrobenzo[[b]thiophene-3-carboxylic acid] was tested, and the IC50 was 200 to 2000 nM.
In the case of COc1cccc(S(=O)(=O)Nc2sc3c(c2C(=O)O)CCCC3)c1 [2-(3-Methoxybenzenensulphonylamino)-4,5,6,7-tetrahydrobenzo[b]thiophene-3-carboxylic acid], the IC50 is reported as 200 to 2000 nM.
Work on O=C(O)c1c(NS(=O)(=O)c2ccc(Cl)cc2)sc2c1CCCC2 [2-(4-Chlorobenzenesulphonylamino)-4,5,6,7-tetrahydrobenzo[b]thiophene-3-carboxylic acid] yielded an IC50 of 200 to 2000 nM.
Cc1cc(F)ccc1S(=O)(=O)Nc1sc2c(c1C(=O)O)CCCC2 [2-(4-Fluoro-2-methylbenzenesulphonylamino)-4,5,6,7-tetrahydrobenzo[b]thiophene-3-carboxylic acid] was tested, and the IC50 was 200 to 2000 nM.
O=C(O)c1c(NS(=O)(=O)c2ccc(F)cc2)sc2c1CCCC2 [2-(4-Fluorobenzenesulphonylamino)-4,5,6,7-tetrahydrobenzo[b]thiophene-3-carboxylic acid] gave an IC50 of under 200 nM.
O=C(O)c1c(NS(=O)(=O)C2CCCCC2)sc2c1CCCC2 [2-(Cyclohexanesulphonylamino)-4,5,6,7-tetrahydrobenzo[b]thiophene-3-carboxylic acid] gave an IC50 of 200 to 2000 nM.
CC1CCc2sc(NS(=O)(=O)c3ccccc3)c(C(=O)O)c2C1 (stereo not shown) [2-Benzenensulphonylamino-5-methyl-4,5,6,7-tetrahydrobenzo[b]thiophene-3-carboxylic acid] gave an IC50 of 200 to 2000 nM.
In the case of Cn1c2c(c(C(=O)O)c1NS(=O)(=O)c1ccccc1)CCCC2 [2-Benzenesulphonylamino-1-methyl-4,5,6,7-tetrahydro-1H-indole-3-carboxylic acid], the IC50 is reported as 200 to 2000 nM.
Compound O=C(O)c1c(NS(=O)(=O)c2ccccc2)sc2c1CCCC2 [2-Benzenesulphonylamino-4,5,6,7-tetrahydrobenzo[b]thiophene-3-carboxylic acid] has an IC50 of under 200 nM.
For O=C(O)c1c(NS(=O)(=O)c2ccccc2)sc2c1CCOC2 [2-Benzenesulphonylamino-4,7-dihydro-5H-thieno[2,3-c]pyran-3-carboxylic acid], the IC50 was 200 to 2000 nM.
Work on Cc1c(-c2ccccc2)sc(NS(=O)(=O)c2ccccc2)c1C(=O)O [2-Benzenesulphonylamino-4-methyl-5-phenylthiophene-3-carboxylic acid] yielded an IC50 of over 2000 nM.
For CC1(C)CCc2sc(NS(=O)(=O)c3ccccc3)c(C(=O)O)c2C1 [2-Benzenesulphonylamino-5,5-dimethyl-4,5,6,7-tetrahydrobenzo[b]thiophene-3-carboxylic acid], the IC50 was 200 to 2000 nM.
O=C(O)c1c(NS(=O)(=O)c2ccccc2)sc2c1CCC2 [2-Benzenesulphonylamino-5,6-dihydro-4H-cyclopenta[b]thiophene-3-carboxylic acid] gave an IC50 of 200 to 2000 nM.
In the case of Cc1c(-c2ccoc2)sc(NS(=O)(=O)c2ccccc2)c1C(=O)O [2-Benzenesulphonylamino-5-(furan-3-yl)-4-methylthiophene-3-carboxylic acid], the IC50 is reported as 200 to 2000 nM.
O=C(O)c1cc(C2CCOCC2)sc1NS(=O)(=O)c1ccccc1 [2-Benzenesulphonylamino-5-(tetrahydropyran-4-yl)thiophene-3-carboxylic acid] showed an IC50 of over 2000 nM.
CCc1sc(NS(=O)(=O)c2ccccc2)c(C(=O)O)c1C(C)C [2-Benzenesulphonylamino-5-ethyl-4-isopropylthiophene-3-carboxylic acid] gave an IC50 of 200 to 2000 nM.
With CCc1sc(NS(=O)(=O)c2ccccc2)c(C(=O)O)c1C [2-Benzenesulphonylamino-5-ethyl-4-methylthiophene-3-carboxylic acid] the IC50 was 200 to 2000 nM.
O=C(O)c1cc(-c2ccccc2)sc1NS(=O)(=O)c1ccccc1 [2-Benzenesulphonylamino-5-phenylthiophene-3-carboxylic acid] was tested, and the IC50 was over 2000 nM.
Compound CC1(C)CCc2c(sc(NS(=O)(=O)c3ccccc3)c2C(=O)O)C1 [2-Benzenesulphonylamino-6,6-dimethyl-4,5,6,7-tetrahydrobenzo[b]thiophene-3-carboxylic acid] has an IC50 of 200 to 2000 nM.
O=C(O)c1c(NS(=O)(=O)c2ccccc2)sc2c1COCC2 [2-Benzenesulphonylamino-6,7-dihydro-4H-thieno[3,2-c]pyran-3-carboxylic acid] gave an IC50 of 200 to 2000 nM.
CC1CCc2c(sc(NS(=O)(=O)c3ccccc3)c2C(=O)O)C1 (stereo not shown) [2-Benzenesulphonylamino-6-methyl-4,5,6,7-tetrahydrobenzo[b]thiophene-3-carboxylic acid] showed an IC50 of under 200 nM.
Work on O=C(O)c1c(NS(=O)(=O)c2ccccc2)sc2ccccc12 [2-Benzenesulphonylaminobenzo[b]thiophene-3-carboxylic acid] yielded an IC50 of over 2000 nM.
O=C(O)c1c(NS(=O)(=O)Cc2ccccc2)sc2c1CCCC2 [2-Phenylmethanesulphonylamino-4,5,6,7-tetrahydrobenzo[b]thiophene-3-carboxylic acid] gave an IC50 of 200 to 2000 nM.
Compound CCN(CC)C/C=C\c1ccccc1S(=O)(=O)Nc1sc2c(c1C(=O)O)CCCC2 [2-[2-((Z)-3-Diethylaminoprop-1-enyl)benzenesulphonylamino]-4,5,6,7-tetrahydrobenzo[b]thiophene-3-carboxylic acid] has an IC50 of 200 to 2000 nM.
